The test deals with T1, renin (Homo sapiens, UniProt P00797).
T1 sequence (P00797 67-406): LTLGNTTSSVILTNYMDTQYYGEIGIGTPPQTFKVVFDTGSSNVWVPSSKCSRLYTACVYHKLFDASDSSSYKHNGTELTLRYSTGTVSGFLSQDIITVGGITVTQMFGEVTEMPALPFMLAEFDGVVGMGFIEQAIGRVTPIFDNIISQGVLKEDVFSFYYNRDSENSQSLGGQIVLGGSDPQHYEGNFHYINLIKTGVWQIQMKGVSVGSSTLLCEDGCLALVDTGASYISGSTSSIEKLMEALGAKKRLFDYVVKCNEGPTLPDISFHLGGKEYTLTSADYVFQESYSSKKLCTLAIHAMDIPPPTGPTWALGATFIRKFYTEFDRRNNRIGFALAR
Description: Renin inhibition. The class given is biochemical.

With “[5(S)-prenyl-(5-benzyl)pyrrolin-4-one-3]-2(R)-isobutylacetate-[1-amino-1(S)-cyclohexylmethyl-2(R)3 3(S)-dihydroxy-5-methyl-hexane]-amide [Structure (10a)]”, the “concentration at which found to act as effective renin inhibitor” value is reported as 700 nM.

Source of the values: patent US5770732A, “Pyrrolinone-based peptidomimetics” (The Trustees of the University of Pennsylvania, priority 1994, dated 1998).
